The source of these data is ChEMBL document CHEMBL3351520, “Discovery of lesser known flavones as inhibitors of NF-κB signaling in MDA-MB-231 breast cancer cells--A SAR study” (Bioorg Med Chem Lett, 2014).

Data set [1] deals with T1, Nuclear factor NF-kappa-B complex (Homo sapiens) (UniProt Q00653+P19838+Q04206). Briefly: Inhibition of NF-kappaB signaling in human MDA-MB-231 cells assessed as reduction in PMA-stimulated MMP9 mRNA expression at 50 uM pre-incubated before PMA stimulation by quantitative RT-PCR method relative to untreated control. Type of data set: cell-based.
T1 sequence (P19838 whole entry, looked up): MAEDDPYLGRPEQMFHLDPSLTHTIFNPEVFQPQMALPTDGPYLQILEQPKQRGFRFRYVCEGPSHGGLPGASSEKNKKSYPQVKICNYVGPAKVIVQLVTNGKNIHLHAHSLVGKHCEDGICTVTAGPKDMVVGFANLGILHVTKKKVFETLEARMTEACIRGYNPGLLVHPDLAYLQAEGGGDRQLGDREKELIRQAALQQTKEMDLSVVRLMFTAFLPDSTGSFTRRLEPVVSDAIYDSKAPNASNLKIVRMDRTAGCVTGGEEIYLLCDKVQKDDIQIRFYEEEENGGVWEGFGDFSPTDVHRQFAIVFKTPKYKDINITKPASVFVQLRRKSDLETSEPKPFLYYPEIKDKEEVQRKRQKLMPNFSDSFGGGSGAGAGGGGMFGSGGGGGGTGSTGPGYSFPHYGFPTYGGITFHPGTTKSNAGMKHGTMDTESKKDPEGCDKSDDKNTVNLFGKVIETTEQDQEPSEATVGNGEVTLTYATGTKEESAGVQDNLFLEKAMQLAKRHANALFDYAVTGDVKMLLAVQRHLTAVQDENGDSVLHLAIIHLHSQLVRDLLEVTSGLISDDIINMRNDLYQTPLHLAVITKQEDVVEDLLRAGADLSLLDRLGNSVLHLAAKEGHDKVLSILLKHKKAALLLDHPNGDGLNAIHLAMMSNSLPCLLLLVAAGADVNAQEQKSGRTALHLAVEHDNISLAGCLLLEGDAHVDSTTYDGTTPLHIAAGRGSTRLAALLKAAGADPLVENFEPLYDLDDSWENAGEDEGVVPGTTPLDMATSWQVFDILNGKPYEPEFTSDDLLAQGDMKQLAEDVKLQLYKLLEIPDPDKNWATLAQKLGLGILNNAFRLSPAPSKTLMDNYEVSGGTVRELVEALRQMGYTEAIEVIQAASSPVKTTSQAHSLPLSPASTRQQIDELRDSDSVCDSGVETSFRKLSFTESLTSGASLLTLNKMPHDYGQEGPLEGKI
T1 sequence (Q00653 whole entry, looked up): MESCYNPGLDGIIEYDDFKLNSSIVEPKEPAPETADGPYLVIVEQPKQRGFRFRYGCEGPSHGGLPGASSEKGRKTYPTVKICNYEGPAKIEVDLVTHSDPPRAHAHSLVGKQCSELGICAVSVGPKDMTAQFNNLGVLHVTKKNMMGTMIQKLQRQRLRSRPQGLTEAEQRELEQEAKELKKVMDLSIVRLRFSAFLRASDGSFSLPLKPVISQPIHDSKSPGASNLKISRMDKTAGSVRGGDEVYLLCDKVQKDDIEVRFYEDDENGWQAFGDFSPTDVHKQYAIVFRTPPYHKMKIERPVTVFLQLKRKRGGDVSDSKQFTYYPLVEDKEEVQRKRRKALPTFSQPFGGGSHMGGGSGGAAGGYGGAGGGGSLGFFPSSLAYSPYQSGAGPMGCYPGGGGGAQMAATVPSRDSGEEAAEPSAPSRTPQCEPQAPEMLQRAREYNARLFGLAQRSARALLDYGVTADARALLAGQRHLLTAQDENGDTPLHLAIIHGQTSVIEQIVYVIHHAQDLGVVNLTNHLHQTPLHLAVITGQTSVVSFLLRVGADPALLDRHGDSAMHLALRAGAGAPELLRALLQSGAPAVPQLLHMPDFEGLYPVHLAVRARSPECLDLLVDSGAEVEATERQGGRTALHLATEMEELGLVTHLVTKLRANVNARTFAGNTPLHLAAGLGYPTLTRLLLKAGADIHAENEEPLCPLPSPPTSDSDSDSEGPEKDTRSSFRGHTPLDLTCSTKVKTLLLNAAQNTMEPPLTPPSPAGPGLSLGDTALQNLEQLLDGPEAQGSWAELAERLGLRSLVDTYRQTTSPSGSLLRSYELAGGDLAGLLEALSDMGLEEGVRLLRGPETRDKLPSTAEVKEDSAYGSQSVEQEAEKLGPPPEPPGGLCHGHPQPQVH
T1 sequence (Q04206 whole entry, looked up): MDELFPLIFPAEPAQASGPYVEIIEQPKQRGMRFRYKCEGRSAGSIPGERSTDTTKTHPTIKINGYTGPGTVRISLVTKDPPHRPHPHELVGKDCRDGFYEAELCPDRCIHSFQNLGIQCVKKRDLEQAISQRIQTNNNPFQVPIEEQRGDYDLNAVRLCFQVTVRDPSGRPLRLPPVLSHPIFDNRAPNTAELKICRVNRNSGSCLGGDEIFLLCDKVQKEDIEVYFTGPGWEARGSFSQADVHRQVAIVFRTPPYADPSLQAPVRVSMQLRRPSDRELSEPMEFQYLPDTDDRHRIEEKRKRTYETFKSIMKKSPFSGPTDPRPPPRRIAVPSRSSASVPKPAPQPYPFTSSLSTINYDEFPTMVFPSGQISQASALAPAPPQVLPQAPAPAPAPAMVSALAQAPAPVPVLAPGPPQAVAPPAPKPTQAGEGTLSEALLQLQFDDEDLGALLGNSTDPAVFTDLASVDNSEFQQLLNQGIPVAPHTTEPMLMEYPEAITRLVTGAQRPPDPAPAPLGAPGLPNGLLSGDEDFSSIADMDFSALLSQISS
Data set [2] has as its target T1, Nuclear factor NF-kappa-B complex (Homo sapiens). Briefly: Inhibition of basal NF-kappaB signaling in human MDA-MB-231 cells assessed as reduction in MMP9 mRNA expression at 6.25 uM by quantitative RT-PCR method relative to untreated control. The format is cell-based.
Data set [3] is described as follows: Toxicity against human MDA-MB-231 cells after 48 hrs by MTT assay. Particulars: read-out: MNCC. Type of data set: cell-based. On the technique in general: Formazan colour is commonly taken as a measure of viable cells.
Data set [4] has as its target T1, Nuclear factor NF-kappa-B complex (Homo sapiens). Briefly: Inhibition of NF-kappaB signaling in human MDA-MB-231 cells assessed as reduction in PMA-stimulated MMP9 mRNA expression at 12.5 uM pre-incubated before PMA stimulation by quantitative RT-PCR method relative to untreated control. Type of data set: cell-based.
Data set [5] concerns MDA-MB-231. Briefly: Cytotoxicity against PMA-stimulated human MDA-MB-231 cells assessed as induction of cell death up to 25 uM after 48 hrs by MTT assay. The format is functional.
The target of data set [6] is T1, Nuclear factor NF-kappa-B complex (Homo sapiens). Put plainly: Inhibition of NF-kappaB signaling in human MDA-MB-231 cells assessed as reduction in PMA-stimulated MMP9 protein expression at 6.25 to 50 uM pre-incubated before PMA stimulation by SDS-PAGE gelatin zymography. Type of data set: cell-based.
For data set [7], the system named is MDA-MB-231. Briefly: Induction of cell cycle arrest in un-stimulated human MDA-MB-231 cells assessed as accumulation at G2/M phase at 25 uM after 48 hrs by propidium iodide staining based flow cytometry. The format is functional. A general note: In flow cytometry, cells or beads pass a laser one at a time.
Data set [8] deals with MDA-MB-231. Briefly: Induction of cell cycle arrest in PMA-stimulated human MDA-MB-231 cells assessed as accumulation at G1 phase at 25 uM after 48 hrs by propidium iodide staining based flow cytometry (reference value: 52%). The format is functional.
Data set [9] has as its target T1, Nuclear factor NF-kappa-B complex (Homo sapiens). Briefly: Inhibition of basal NF-kappaB signaling in human MDA-MB-231 cells assessed as reduction in COX2 mRNA expression at 25 uM by quantitative RT-PCR method relative to untreated control. Type of data set: cell-based.
Data set [10] concerns MDA-MB-231. Briefly: Induction apoptosis in PMA-stimulated human MDA-MB-231 cells assessed as mitochondrial disruption up to 50 uM uM after 48 hrs by JC1 staining based fluorescence assay. Type of data set: functional, cell-based.
Data set [11] deals with T1, Nuclear factor NF-kappa-B complex (Homo sapiens). Put plainly: Inhibition of basal NF-kappaB signaling in human MDA-MB-231 cells assessed as reduction in MMP9 mRNA expression at 50 uM by quantitative RT-PCR method relative to untreated control. The format is cell-based.
The target is the same in data set [12]. Put plainly: Inhibition of NF-kappaB signaling in human MDA-MB-231 cells assessed as reduction in PMA-stimulated MMP9 mRNA expression at 25 uM pre-incubated before PMA stimulation by quantitative RT-PCR method relative to untreated control. The format is cell-based.
For data set [13] the target is unchanged. Briefly: Inhibition of basal NF-kappaB signaling in human MDA-MB-231 cells assessed as reduction in MMP9 mRNA expression at 25 uM by quantitative RT-PCR method relative to untreated control. The format is cell-based.
The subject of data set [14] is MDA-MB-231. Briefly: Induction of cell cycle arrest in PMA-stimulated human MDA-MB-231 cells assessed as accumulation at G2/M phase at 25 uM after 48 hrs by propidium iodide staining based flow cytometry (reference value: 19%). Type of data set: functional.
Data set [15] concerns MDA-MB-231. Briefly: Cytotoxicity against non-stimulated human MDA-MB-231 cells assessed as induction of cell death up to 25 uM after 48 hrs by MTT assay. The format is functional.
Data set [16] has as its target T1, Nuclear factor NF-kappa-B complex (Homo sapiens). Put plainly: Inhibition of basal NF-kappaB signaling in human MDA-MB-231 cells assessed as reduction in MMP9 mRNA expression at 12.5 uM by quantitative RT-PCR method. Type of data set: cell-based.
Data set [17] deals with MDA-MB-231. Put plainly: Induction of cell cycle arrest in PMA-stimulated human MDA-MB-231 cells assessed as accumulation at S phase at 25 uM after 48 hrs by propidium iodide staining based flow cytometry (reference value: 29%). Type of data set: functional.
Data set [18] has as its target T1, Nuclear factor NF-kappa-B complex (Homo sapiens). Put plainly: Inhibition of NF-kappaB signaling in human MDA-MB-231 cells assessed as reduction in PMA-stimulated COX2 mRNA expression at 25 uM pre-incubated before PMA stimulation by quantitative RT-PCR method relative to untreated control. The format is cell-based.
The target is the same in data set [19]. Briefly: Inhibition of basal NF-kappaB signaling in human MDA-MB-231 cells assessed as reduction in MMP9 mRNA expression at 12.5 uM by quantitative RT-PCR method relative to untreated control. Type of data set: cell-based.
Data set [20] concerns MDA-MB-231. Put plainly: Cytotoxicity against non-stimulated human MDA-MB-231 cells assessed as induction of cell death at 50 uM after 48 hrs by MTT assay. Type of data set: functional.
In data set [21] the test system is MDA-MB-231. Briefly: Cytotoxicity against PMA-stimulated human MDA-MB-231 cells assessed as induction of cell death at 50 uM after 48 hrs by MTT assay. The format is functional.
Data set [22] deals with MDA-MB-231. Briefly: Induction of cell cycle arrest in PMA-stimulated human MDA-MB-231 cells assessed as accumulation at G2/M phase at 25 uM after 48 hrs by propidium iodide staining based flow cytometry. Type of data set: functional.
In data set [23] the test system is MDA-MB-231. Put plainly: Inhibition of cell invasion of PMA-stimulated human MDA-MB-231 cells. Type of data set: functional, cell-based.
Data set [24] deals with MDA-MB-231. Put plainly: Inhibition of cell migration of PMA-stimulated human MDA-MB-231 cells. Type of data set: functional, cell-based.
Data set [25] has as its target T1, Nuclear factor NF-kappa-B complex (Homo sapiens). Briefly: Inhibition of basal NF-kappaB signaling in human MDA-MB-231 cells assessed as reduction in MMP9 mRNA expression at 3.125 uM by quantitative RT-PCR method relative to untreated control. The format is cell-based.
Data set [26] has the same target. Briefly: Effect on NF-kappaB signaling in human MDA-MB-231 cells assessed as increase in COX2 mRNA expression at 25 uM by quantitative RT-PCR method. Type of data set: cell-based.
Data set [27] has the same target. Put plainly: Effect on NF-kappaB signaling in human MDA-MB-231 cells assessed as increase in MMP9 mRNA expression at 25 uM by quantitative RT-PCR method. The format is cell-based.
Data set [28] concerns MDA-MB-231. Briefly: Induction apoptosis in PMA-stimulated human MDA-MB-231 cells assessed as mitochondrial disruption at 10 uM after 48 hrs by JC1 staining based fluorescence assay. The format is functional, cell-based.
Data set [29] addresses T1, Nuclear factor NF-kappa-B complex (Homo sapiens). Briefly: Inhibition of doxorubicin-stimulated NF-kappaB signaling (unknown origin) expressed in MDA-MB-231 cells at 5 uM incubated for 16 hrs by luciferase reporter gene assay. The format is cell-based.
For data set [30] the target is unchanged. Briefly: Inhibition of non-stimulated NF-kappaB signaling (unknown origin) expressed in MDA-MB-231 cells at 5 uM incubated for 16 hrs by luciferase reporter gene assay. Type of data set: cell-based. For orientation: Reporter assays use an easily measured gene product as a stand-in for the process of interest.
Data set [31] has the same target. Briefly: Inhibition of NF-kappaB signaling in human MDA-MB-231 cells assessed as reduction in PMA-stimulated COX2 mRNA expression at 5 uM pre-incubated for 8 hrs before PMA stimulation for 4 hrs by quantitative RT-PCR method. The format is cell-based.
Data set [32] shares this target. Briefly: Inhibition of NF-kappaB signaling in human MDA-MB-231 cells assessed as reduction in PMA-stimulated MMP9 mRNA expression at 5 uM pre-incubated for 8 hrs before PMA stimulation for 4 hrs by quantitative RT-PCR method. The format is cell-based.
For data set [33], the system named is MDA-MB-231. Briefly: Induction apoptosis in PMA-stimulated human MDA-MB-231 cells assessed as mitochondrial disruption 3.125 to 25 uM uM after 48 hrs by JC1 staining based fluorescence assay. Type of data set: functional, cell-based.

Calls of active or inactive are those of the source. No cut-off for these calls is given here. Some results are limits rather than exact numbers.

With `COc1cc(-c2cc(=O)c3c(O)cc(O)cc3o2)ccc1O` [CHRYSOERIOL], the fold change (FC) in data set [1] is 1.33; in data set [2] it was 0.361; in data set [4], 3.67; in data set [11] it was 0.204; in [12], 2.11; in data set [13], 0.211. Further, the values for the fold change (FC) in data set [19] and in [25] were 0.208 and 0.708, respectively. The MNTC at 48 h in data set [3] turned out to be 25 µM. Also, the Activity with MDA-MB-231 [5] is below 10%; in the data set on MDA-MB-231 [7], “Dose-dependent effect”; in the data set on MDA-MB-231 [8], 34%; with MDA-MB-231 [14], 39%; in the data set with MDA-MB-231 [15], below 10%; with MDA-MB-231 [17], 27%. Also, the Activity with MDA-MB-231 [20] was 10%; with MDA-MB-231 [21], 10%; in the data set with MDA-MB-231 [22], “Dose-dependent effect”. The inhibition result in [6], in [9] and in data set [18] was “Active” in each case. In addition, in the data set on MDA-MB-231 [10], the outcome was inactive. For the same compound, the inhibition in data set [16] is 80%; in the data set with MDA-MB-231 [23], “Dose-dependent effect”; in the data set with MDA-MB-231 [24] it was “Dose-dependent effect”.
For `COc1ccc(-c2cc(=O)c3c(O)cc(O)cc3o2)cc1O`, the inhibition result in [9], in data set [12], in data set [13] and in data set [18] was “Active” each time.
Take `O=c1c(O)c(-c2ccc(O)c(O)c2)oc2cc(O)c(O)c(O)c12`: the outcome in data set [26] and in data set [27] was Active.
On to `COc1cccc2c1C(=O)c1c(O)c3c(c(O)c1C2=O)C[C@@](O)(C(=O)CO)C[C@@H]3O[C@H]1C[C@H](N)[C@H](O)[C@H](C)O1`, for which the result in the data set with MDA-MB-231 [28] was Active.
Turning to `C=C1C(=O)O[C@@H]2C3O[C@]3(C)CC/C=C(\C)CC[C@@H]12` (stereo partly drawn), the inhibition entry in data set [29], in [30], in data set [31] and in data set [32] was “Active” throughout.
In the case of `COc1ccc(-c2cc(=O)c3c(O)cc(O)cc3o2)cc1`, the inhibition result in [9], in [12], in data set [13] and in [18] was “Active” each time.
Consider `O=c1c(O)c(-c2ccc(O)c(O)c2)oc2cc(O)cc(O)c12`, for which the inhibition result in data set [9], in [12], in data set [13] and in data set [18] was “Active” each time. Also, the result in the data set on MDA-MB-231 [33] was Active. Also, the inhibition result in the data set on MDA-MB-231 [24] was “inactive”.
For `O=c1c(O)c(-c2ccc(O)c(O)c2)oc2c(O)c(O)cc(O)c12`, the outcome in [26] and in data set [27] was Active.

What is called inhibition is the change of the read-out against control, counted positive when it falls.
